Values quoted from earlier work as cited in patent publication US6110491A, “Compound-loaded liposomes and methods for their preparation” (Hermes Biosciences, Inc., priority 1997, dated 2000).
Values after ≈ are worked out from the molar mass of the structure shown. Like-named read-outs stand apart in the source and are kept apart here.

Settings: cited from earlier work; for pH-dependent solubility: 37° C.

**Q.** Which solubility in water (alkaline pH) does the source give for Nc1nc(O)c2ncn(COC(CO)CO)c2n1 [gancyclovir] here?
**A.** The solubility in water was over 100 mg/mL.

**Q.** What about the solubility in water (pH 7.4) of the same molecule?
**A.** Its solubility in water is 2.5 mg/mL (≈ 9.79 mM).

**Q.** For CCn1cc(C(=O)O)c(=O)c2cc(F)c(N3CCNCC3)cc21 [norfloxacin], which pH-dependent solubility (pH 6.5) is on record?
**A.** The pH-dependent solubility was 2.8 mg/ml.

**Q.** And the pH-dependent solubility (pH 7.0)?
**A.** The pH-dependent solubility was 1.5 mg/ml.

**Q.** What about the pH-dependent solubility (pH 8.0) of the same molecule?
**A.** The pH-dependent solubility was 1.9 mg/ml.

**Q.** And the pH-dependent solubility (pH <5.5)?
**A.** The pH-dependent solubility was over 40 mg/ml.

**Q.** What does the source list for CC(C)Cc1ccc(C(C)C(=O)O)cc1 (centres unmarked) [ibuprofen]?
**A.** solubility (in words) (alkaline pH): soluble at alkaline pH; solubility (in words) (neutral pH): poorly soluble at neutral pH

**Q.** With Nc1cc(-c2ccncc2)c[nH]c1=O [amrinone] as the molecule, how does the pH dependent solubility (pH 4.1) read?
**A.** Its pH dependent solubility is 25 mg/ml.

**Q.** And the pH dependent solubility (pH 6)?
**A.** The pH dependent solubility was 0.9 mg/ml.

**Q.** And the pH dependent solubility (pH 8)?
**A.** The pH dependent solubility was 0.9 mg/ml.
